Experimental data as given in article PMC11249646, “Small-Molecule Disruptors of the Interaction between Calcium- and Integrin-Binding Protein 1 and Integrin αIIbβ3 as Novel Antiplatelet Agents” (ACS Pharmacology & Translational Science, 2024).
Like-named read-outs stand apart in the source and are kept apart here.

Biological target: T1, CIB1 and αIIb interaction (CIB1-GST : F-αIIb peptide) (Homo sapiens, UniProt Q99828)
T1 construct: made in house; host or cells: BL-21 plus RIL cells (E. coli)
T1 sequence (Q99828 1-191): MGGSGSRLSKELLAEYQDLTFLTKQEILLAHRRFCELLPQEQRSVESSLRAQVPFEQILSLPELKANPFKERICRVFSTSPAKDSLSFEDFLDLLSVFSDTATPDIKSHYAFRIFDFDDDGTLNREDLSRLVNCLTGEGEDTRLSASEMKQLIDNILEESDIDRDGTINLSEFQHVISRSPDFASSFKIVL
Assay: FP assay, 1536-well qHTS format (primary and confirmatory screen)
Assay type: binding
Details: for Efficacy (%): negative = inhibition; for Curve Class: negative sign = inhibitory curve; for IC50: read-out: IC50

[1] = qHTS primary screen hits, Table S2
[2] = qHTS primary screen hits, Table S2, several classes where COUNT > 1
[3] = qHTS primary screen of LOPAC/NPACT libraries
[4] = qHTS primary screen hits, Table S2, NPACT library

| Efficacy (%) [3] | Curve Class [3] | IC50 [3] | Curve Class [4] | SMILES | Efficacy (%) [1] | Curve Class [2] | IC50 [1] | Curve Class [1] |
| --- | --- | --- | --- | --- | --- | --- | --- | --- |
| – | – | – | – | CNS(=O)(=O)c1ccc(Cc2c(-c3cccc(-c4ccccc4)c3)nn(-c3nc(C(=O)O)cs3)c2O)cc1.O=C(O)C(F)(F)F [NCGC00356637-01] | -55% | -3 | 79.4 µM | – |
| – | – | – | – | NS(=O)(=O)c1ccc(Cc2cn(-c3nc(C(=O)O)cs3)c3ncccc23)cc1 [NCGC00356703-01] | -41% | -2.2 | 44.7 µM | – |
| – | – | – | – | N#CCc1cc(-c2ccc(F)c(F)c2)nn1-c1nc(C(=O)O)cs1.O=C(O)C(F)(F)F [NCGC00356771-02] | -16% | – | 50.1 µM | -2.4 |
| – | – | – | – | NS(=O)(=O)c1ccc(NCc2cn(-c3nc(C(=O)O)cs3)nc2-c2ccccc2)cc1.O=C(O)C(F)(F)F [NCGC00357525-01] | -25% | -2.4 | 56.2 µM | – |
| -22% | -1.4 | 22.4 µM | – | COc1ccc(S(=O)(=O)Nc2nc(-c3cccc([N+](=O)[O-])c3)cs2)cc1OC [NCGC00370730-07] | – | – | – | – |
| -104% | -2.1 | 17.8 µM | – | CC1=C(C(=O)OC2CCCCC2)C(c2ccc([N+](=O)[O-])cc2)C2=C(CC(C)(C)CC2=O)N1 (stereo not drawn) [NCGC00370923-11] | – | – | – | – |
| -32% | -2.4 | 44.7 µM | – | O=C(O)CCc1ccc(NCc2cccc3c2CCCN3CCOc2ccccc2)cc1F [NCGC00370998-03] | – | – | – | – |
| – | – | – | – | Nc1c(C(=O)Nc2ccc(F)cc2)sc2nc(-c3cccs3)ccc12.O=C(O)C(F)(F)F [NCGC00371815-01] | -31% | -2.4 | 79.4 µM | – |
| – | – | – | – | COc1cccc2nc3c(C(=O)NCCN(C)C)cccc3cc12.O=C(O)C(F)(F)F [NCGC00371843-01] | -37% | -2.4 | 50.1 µM | – |
| – | – | – | – | O=C(O)c1csc(-n2cc(Cc3ccc(CO)cc3)c(-c3cccc(-c4ccccc4)c3)n2)n1 [NCGC00371885-01] | -35% | -2.4 | 44.7 µM | – |
| -17% | -1.4 | 10 µM | – | Cn1cc(-c2cnc3ccc4ccc(CS(=O)(=O)NCc5ccccn5)cc4c(=O)c3c2)cn1 [NCGC00378567-02] | – | – | – | – |
| – | – | – | – | CCOc1cc(C(C)(C)C)ccc1C1=N[C@@](C)(c2ccc(Cl)cc2)[C@@](C)(c2ccc(Cl)cc2)N1C(=O)N1CCN(CC(=O)N2CCOCC2)CC1 [NCGC00378588-02] | -29% | -2.4 | 49.1 µM | – |
| -24% | -1.4 | 6.3 µM | – | CNC(=O)c1ccccc1Nc1cc(Nc2ccc(N3CCOCC3)cc2OC)ncc1C(F)(F)F [NCGC00378620-04] | – | – | – | – |
| -25% | -2.4 | 56.2 µM | – | Cc1cc(-c2cc(O)ccc2Cl)cc2nnc(Nc3ccc(OCCN4CCCC4)cc3)nc12.Cl [NCGC00378690-01] | – | – | – | – |
| -28% | -2.4 | 56.2 µM | – | Cc1cccc(C)c1-n1c(=O)c2cnc(Nc3ccc(N4CCN(C)CC4)cc3)nc2n2c3ccccc3nc12 [NCGC00378811-02] | – | – | – | – |
| -25% | -2.4 | 56.2 µM | – | CCOc1cc(C(=O)N2CCC(N3CCN(C)CC3)CC2)ccc1Nc1ncc2c(n1)N(C1CCCC1)c1ccccc1C(=O)N2C [NCGC00378965-03] | – | – | – | – |

| Efficacy (%) [3] | Curve Class [3] | IC50 [3] | Curve Class [4] | SMILES | Efficacy (%) [1] | Curve Class [2] | IC50 [1] | Curve Class [1] |
| --- | --- | --- | --- | --- | --- | --- | --- | --- |
| -32% | -2.4 | 79.4 µM | – | CCCC1(CCC)CCC2(CCN(CCCN(CC)CC)C2)CC1.Cl [NCGC00379163-01] | – | – | – | – |
| -28% | -2.4 | 56.2 µM | – | Cc1cc(O)cc(Oc2cc(C)c(C(=O)O)c(O)c2)c1 [NCGC00380115-01] | – | – | – | – |
| -24% | -2.4 | 39.8 µM | – | C=C1CCC2C(C)(C)CC(O)CC2(C)C1CCC(C)CCOC(=O)CCC(=O)O (stereo not drawn) [NCGC00380160-01] | – | – | – | – |
| -23% | -1.4 | 4.5 µM | – | C=C1C(=O)O[C@@H]2C/C(C)=C\C(=O)/C=C(\C)[C@@H](OC(=O)/C(C)=C\C)[C@H](O)[C@@H]12 [NCGC00380290-01] | – | – | – | – |
| -28% | -2.4 | 44.7 µM | – | CC1(CO)CCCC2(C)C1C(OC(=O)c1ccccc1)C=C1C(=O)OCC12O (stereo not drawn) [NCGC00380390-01] | – | – | – | – |
| – | – | – | -1.4 | C=C(C)C(=O)OC1CC2(C)OC(=CC2=O)C(=C)CC2OC(=O)C(COC)C12 (stereo not drawn) [NCGC00380534-01] | -17% | – | 28.2 µM | – |
| – | – | – | -2.2 | CC1OC2OC(=O)C3(C)CC4C5(CO5)C5=CC(=O)OC(C)(C)C5=CC(=O)C4(C)C(C1=O)C23 (stereo not drawn) [NCGC00380663-01] | -57% | – | 31.6 µM | – |
| -20% | -1.4 | 8.9 µM | – | O=C(/C=C/c1ccccc1)OC[C@H]1O[C@@H](OC(=O)c2cc(O)c(O)c(O)c2)[C@H](O)[C@@H](O)[C@@H]1O [NCGC00380690-01] | – | – | – | – |
| -23% | -2.4 | 50.1 µM | – | Cc1c(O)cc2c(c1O)COC1(O)CCCOC21 (stereo not drawn) [NCGC00380856-01] | – | – | – | – |
| -21% | -1.4 | 14.1 µM | – | C=C1CC(=O)C2OC2(C)CC2OC(=O)C(=C)C2C(O)C1OC(=O)/C(C)=C\C (stereo not drawn) [NCGC00381057-01] | – | – | – | – |
| -22% | -1.4 | 8.9 µM | – | C=C(C)C(=O)OC1CC2(C)OC(=CC2=O)C(=C)CC2OC(=O)C(=C)C12 (stereo not drawn) [NCGC00381113-01] | – | – | – | – |
| -28% | -1.4 | 1.6 µM | – | C=C1C(=O)O[C@@H]2C(OC(=O)/C(C)=C\C)/C(C)=C\C(=O)/C=C(\C)C[C@H](O)[C@@H]12 (stereo partly drawn) [NCGC00381208-01] | – | – | – | – |
| -22% | -2.4 | 56.2 µM | – | CCC(C)CC(=O)OC1C(=O)C(CO)=CC(O)C1C(C)C (stereo not drawn) [NCGC00381331-01] | – | – | – | – |
| -22% | -2.4 | 25.1 µM | – | COC(=O)CC1OC(C)C2=C(O)c3c(O)cccc3C(=O)C23OC13 (stereo not drawn) [NCGC00381362-01] | – | – | – | – |
| -25% | -1.4 | 11.2 µM | – | C=C1CC2OC(=O)C(=C)C2C(OC(=O)/C(C)=C\C)CC2(C)OC1=CC2=O (stereo not drawn) [NCGC00384607-01] | – | – | – | – |
| -20% | -1.4 | 17.8 µM | – | C=C1CCC2C(C)(COC(C)=O)CCCC2(C)C1CCC(C)CC(=O)O (stereo not drawn) [NCGC00384884-01] | – | – | – | – |

| SMILES | Efficacy (%) [3] | Curve Class [3] | IC50 [3] | Curve Class [4] | Efficacy (%) [1] | Curve Class [2] | IC50 [1] | Curve Class [1] |
| --- | --- | --- | --- | --- | --- | --- | --- | --- |
| N#CSc1cc(SC#N)c(N)nc1N [NCGC00371134-01] | -31% | -2.4 | 14.1 µM | – | – | – | – | – |
| CO[C@@H](Cc1ccc(OCCc2nc(-c3ccccc3)oc2C)c2ccsc12)C(=O)O [NCGC00378922-01] | -15% | -1.4 | 20 µM | – | – | – | – | – |
| C=C1C2(C)CC3C(C)(O)C4=CC(=O)OC(C)(C)C4=CCC3(C)C13C(=O)OC(C)C3(O)C2=O (stereo not drawn) [NCGC00380442-01] | -28% | -2.4 | 35.5 µM | – | – | – | – | – |
| CCC(C)(OC(C)=O)C(=O)O[C@H]1[C@H](OC(C)=O)C[C@@H]2[C@@](C)([C@@H]3C[C@H]4C=CO[C@H]4O3)[C@H](C)C[C@H](OC(C)=O)[C@@]2(COC(C)=O)[C@@]12CO2 (stereo partly drawn) [NCGC00380906-01] | -20% | -2.4 | 10 µM | – | – | – | – | – |
